Experiments:
Assay type in all cases: cell-based
red blood cells (RBC) = test: hemolysis study; settings: human RBC, 1 h, 37 °C, PBS pH 7.4
Method: The hemolysis test was performed with red blood cells (RBC) to evaluate the potential toxic effect of Arg-surfactants on human cells.[18] Human RBC concentrate was kindly donated by the Tirol Kliniken GmbH, Innsbruck, Austria, and stored at 4 °C until use. RBC concentrate (0.556 mL) was freshly diluted by adding sterile Dulbecco’s PBS (pH 7.4) (1.944 mL) before the test to obtain an equivalent amount of whole blood (EWB). Then EWB was 50 times diluted in sterile Dulbecco’s PBS (pH 7.4). The diluted blood on visual inspection was turbid and settled down upon leaving undisturbed, indicating no cell lysis. Arg-surfactant stock solutions were prepared in the concentration range of 10–5000 μg mL^–1 in PBS. For comparison, BAC and cetrimide solutions were prepared in the same concentration range in PBS. For the assay, 10 μL of each test sample was mixed with 190 μL of diluted blood, resulting in the testing final concentrations of 0.5–250 μg mL^–1. For the positive control, 10 μL of 20% v/v Triton X-100 and, for the negative control, 10 μL of sterile Dulbecco’s PBS were mixed with 190 μL of diluted blood. All samples and controls were incubated for 1 h at 37 °C with shaking. After centrifugation at 10 000 rpm for 60 s, aliquots of 100 μL were withdrawn from the supernatants and transferred to a 96-well plate. Absorbance was measured at a wavelength of 420 nm. The extent of hemolysis as a percentage was determined by using the following equation: [drawing 6]

[1] = system: Escherichia coli ATCC 25922; test: MIC testing by the microdilution method; settings: Escherichia coli, ATCC25922, read-out: minimum inhibitory concentration
Method: (§1) Following bacterial strains were used for antimicrobial susceptibility testing: Escherichia coli ATCC 25922, Staphylococcus aureus ATCC 29213, Bacillus subtilis ATCC 6633, and Enterococcus faecalis ATCC 19433, which were obtained from the American Type Culture Collection (ATCC, Virginia, USA).
(§2) The MIC is the lowest concentration of a substance that leads to a clearly visible growth inhibition after a defined incubation period. To evaluate the MIC of Arg-DT, Arg-OL, BAC, and cetrimide, a microdilution test was performed according to the guidelines of the Clinical and Laboratory Standards Institute.[19] First of all, similarly, as for the disk diffusion test, microorganisms were dissolved in saline and set to a 0.5 McFarland standard turbidity. This corresponds to a bacterial concentration of 1.5 × 10^8 colony-forming units per milliliter (CFU mL^–1); 50 μL of the bacterial suspension was added to 10 mL of Mueller Hinton Bouillon (MHB, Becton Dickinson, New Jersey, USA). The stock solutions were prepared as follows: the test compounds Arg-OL, Arg-DT, BAC, and cetrimide were dissolved in water with 10% (v/v) DMSO at a concentration of 10 mg mL^–1. The obtained solutions were used to prepare serial dilutions. The tested concentration for each substance ranged from 5000 to 5 μg mL^–1. Each test sample was added to a flat-bottomed tissue plate well in the volume of 75 μL. The first well of the tissue plate containing 75 μL of water with 10% (v/v) DMSO instead of any test sample was used as a positive control. Finally, 75 μL of the bacterial suspension was added to each well, and the plates were incubated at 37 °C overnight.
(§3) Before measuring the optical density (OD), plates were shaken for 15 min at 250 rpm. The OD was measured using the Bio-Rad 680 microplate reader (Hercules, California, USA) at a wavelength of 490 nm. Inhibition of bacterial growth was defined as a reduction of growth for at least 5 log units. Experiments were performed three times under analogous conditions for each bacterial strain and each tested sample.

[2] = system: Bacillus subtilis ATCC 6633; test: MIC testing by the microdilution method; settings: Bacillus subtilis, ATCC6633, read-out: minimum inhibitory concentration
Method: as §1, §2, §3

[3] = system: Staphylococcus aureus ATCC 29213; test: MIC testing by the microdilution method; settings: Staphylococcus aureus, ATCC29213, read-out: minimum inhibitory concentration
Method: as §1, §2, §3

[4] = system: Enterococcus faecalis ATCC 19433; test: MIC testing by the microdilution method; settings: Enterococcus faecalis, ATCC19433, read-out: minimum inhibitory concentration
Method: as §1, §2, §3

Caco-2 cell membrane = test: fluorescence anisotropy (DPH), membrane fluidity; settings: DPH-labeled Caco-2 cells
Method: To evaluate membrane fluidity by fluorescence spectroscopy, a method described by Aricha et al. was adapted.[17] Caco-2 cells were labeled with fluorescent probe DPH (1,6-diphenyl-1,3,5-hexatriene). For this, a 1 mM solution of DPH was prepared in acetone. A Caco-2 cell monolayer in a 15 mL cell flask after washing with sterile PBS was trypsinized and resuspended in 10 mM HBS (pH 7.4) at a concentration of 2 × 10^5 cells mL^–1. Then a 1 mM DPH solution (10 μL) was added to a Caco-2 cell suspension (5 mL) and kept for incubation at 37 °C in the dark. After 1 h, cells were centrifuged at 588 rpm for 3 min, and solvent was removed to get rid of the free probe. Cells were resuspended in the same volume of HBS. Samples of Arg-surfactants were prepared in HBS in concentrations of 2000, 1000, and 500 μg mL^–1. Then each sample solution was mixed with a DPH-labeled cell suspension in equal volumes and incubated at room temperature in the dark. HBS mixed in an equal volume with the DPH-labeled cell suspension was used as a control. At specific time points, fluorescence polarization data were obtained using an excitation wavelength of 350 nm and an emission wavelength of 420 nm, and anisotropy was calculated using the following equation: [drawing 5] where I∥ and I⊥ are the fluorescence intensities parallel and perpendicular to the direction of the excitation light beam.

Row | SMILES | HC50 (concentration causing lysis of 50% red blood cells) (red blood cells (RBC)) [μg mL^–1] | MIC [1] [µg/mL] | MIC [2] [µg/mL] | MIC [3] [µg/mL] | MIC [4] [µg/mL] | changes in anisotropy (Caco-2 cell membrane; < 1000 μg mL^–1) | decrease in the anisotropy value as compared to the control (Caco-2 cell membrane; within 2 h) [%]
1 | CCCCCCCCCCCCC(CCCCCCCCCC)COC(=O)[C@@H](N)CCCNC(=N)N.O=C(O)C(F)(F)F (stereo partly drawn) [Arg-DT, 2-Decyltetradecyl Argininate Trifluoroacetate] | 125 | 39 | 5 | 10 | 10 | not significant | 
2 | CCCCCCCCC=CCCCCCCCCOC(=O)[C@@H](N)CCCNC(=N)N.O=C(O)C(F)(F)F [Arg-OL, Octadec-9-en-1-yl Argininate Trifluoroacetate] | 60 | 20 | 5 | 10 | 5 |  | > 30
